This note sets out measurements from patent US9629899B2, “Targeted cargo protein combination therapy” (priority 2008, dated 2017).

The conditions of series [1]: mice receiving optimal doses; data not shown.
The test system of series [2] is clinical pancreatic cancer sample xenograft. Put plainly: Advanced orthotopic pancreatic cancer model from a clinical sample, survival. It is filed as in vivo. The conditions noted are these: clinical sample in SCID mice, treatment from day 31; gemcitabine 150 mg/kg i.p. twice a week; PRX321 100 ug/kg i.p. twice a day days 31-35; non-treatment 62 days.
Protocol: Primary and orthotopic pancreatic cancer model using a clinical sample. […] Viable tumor tissue from specimen was cut into small pieces (3% 3% 3 mm) and implanted in the pancreas of 5- to 6-week-old male SCID mice. Primary xenografts were propagated continuously in SCID mice for in vivo testing. Clinical sample-bearing mice were also treated after day 31 by the same protocol as described above.
(§1) Statistical analysis. The mean tumor volume in therapeutic and control groups was analyzed by ANOVA. Survival curves were generated by Kaplan-Meier method and compared by using the log-rank test.
These mice, when advanced disease developed, were divided into four groups on day 31 and treated as described in Materials and Methods. […] Group 2 animals received gemcitabine (150 mg/kg) by i.p. administration twice a week as long as the experiment lasted.
For series [3], the system named is Capan-1 cells. Put plainly: cells. In kind it is cell-based, human.
In series [4] the test system is SW1990 cells. In words: cells. It is filed as cell-based, human.
Series [5] relates to HS766T cells. Put plainly: Protein synthesis inhibition assay (cytotoxicity), HS766T. In kind it is cell-based. The conditions noted are these: Homo sapiens, read-out: IC50 (50% protein synthesis inhibition), single agent.
Protocol: Protein synthesis inhibition assay and assessment of synergism or antagonism. […] On the basis of the isobologram analysis for mutually exclusive effects, the CI value was calculated as follows:
The subject of series [6] is MIA-PaCa-2-GFP tumors. Put plainly: Early pancreatic tumor model, orthotopic MIA-PaCa-2-GFP, whole-body imaging and survival. It is filed as in vivo, nude mice.
Protocol: (§2) Surgical orthotopic implantation of MIA-PaCa-2-GFP tumors. MIA-PaCa-2-GFP cells were injected s.c. into the right dorsal flank of nude mice. Pancreatic tumors, grown s.c. in nude mice, were cut with scissors and minced into f3% 3% 3-mm pieces. For orthotopic surgery, the pancreas was carefully exposed, and tumor chunks were transplanted on the middle of the pancreas with a 6-0 Dexon surgical suture (Davis-Geck, Inc.). The pancreas was then returned to the peritoneal cavity, the abdominal wall, and the skin was closed with 6-0 Dexon sutures.
Experimental design and treatment. For early pancreatic cancer model, primary tumor lesions were detected by external whole-body imaging on day 4 after transplantation. Once the tumors were visualized, mice were randomized into four groups of 10 each. Treatment was initiated on day 5. For advanced pancreatic cancer model, primary and metastasis tumor lesions were detected by external whole-body imaging on day 14 post-transplantation of tumor chunk and randomized into four groups of 10 mice each. Treatment was initiated on day 15.
as §1
Treatment was initiated on day 5 after transplantation. […]
Series [7] concerns MIA-PaCa-2 cells. Put plainly: cells. It is filed as cell-based, human.
Series [8] concerns MIA-PaCa-2-GFP tumors. In words: Advanced metastatic pancreatic tumor model, orthotopic MIA-PaCa-2-GFP, whole-body imaging and survival. It is filed as in vivo, nude mice.
Protocol: as §2
For advanced pancreatic cancer model, primary and metastasis tumor lesions were detected by external whole-body imaging on day 14 post-transplantation of tumor chunk and randomized into four groups of 10 mice each. Treatment was initiated on day 15.
The mean tumor volume in therapeutic and control groups was analyzed by ANOVA. Survival curves were generated by Kaplan-Meier method and compared by using the log-rank test.
Group 2 animals received gemcitabine (150 mg/kg) by i.p. administration twice a week as long as the experiment lasted.
The mark [9] stands for this setting: Homo sapiens, read-out: IC50 (50% protein synthesis inhibition), single agent.

For `Nc1ccn([C@@H]2O[C@H](CO)[C@@H](O)C2(F)F)c(=O)n1` [Gemcitabine], the “Visible signs of toxicity (weight loss, inactivity)” value in series [1] is “no visible signs of toxicity”. In addition, the Median survival time in series [2] is listed as 86 days; in series [6] (non-treatment group 27 days), 54 days; in series [8] (non-treatment group 28 days), 34 days. In addition, the 50% inhibitory concentration (IC50) in series [3] (setting [9]) was determined as 3.2 nM; in series [4] (setting [9]) it was 1000 nM; in series [5], 14 nM; in series [7] (setting [9]), 22 nM. Besides, the “IC75 (75% protein synthesis inhibition)” value is 9 nM in series [3] (single agent), 3,000 nmol/L in series [4] (single agent) and 280 nM in series [7] (single agent). Further, the “Tumor growth compared with non-treatment group (whole-body imaging)” value is recorded as “reduction in the rate of tumor growth” in series [6] (treatment from day 5, gemcitabine 150 mg/kg i.p. twice a week, PRX321 100 ug/kg i.p. twice a day for 5 days) and “reduction in the rate of tumor growth” in series [8] (treatment from day 15, gemcitabine 150 mg/kg i.p. twice a week, PRX321 100 ug/kg i.p. twice a day for 5 days). Also, the “Reduction in tumor size on day 28 compared with the no treatment group” value in series [8] (day 28) was found to be 39.8%.
